Among the data in ChEMBL document CHEMBL5291721, “A preclinical secondary pharmacology resource illuminates target-adverse drug reaction associations of marketed drugs” (Nat Commun, 2023) are AC50 values, retold here.

What is called AC50 is the midpoint of the concentration-response curve, whichever way the signal moves.

Bounds are passed on as bounds.

In one assay the target is Mu-type opioid receptor (Homo sapiens, UniProt P35372). As to the kind of experiment: biochemical. Format: functional.
Chain of Mu-type opioid receptor (P35372 whole entry): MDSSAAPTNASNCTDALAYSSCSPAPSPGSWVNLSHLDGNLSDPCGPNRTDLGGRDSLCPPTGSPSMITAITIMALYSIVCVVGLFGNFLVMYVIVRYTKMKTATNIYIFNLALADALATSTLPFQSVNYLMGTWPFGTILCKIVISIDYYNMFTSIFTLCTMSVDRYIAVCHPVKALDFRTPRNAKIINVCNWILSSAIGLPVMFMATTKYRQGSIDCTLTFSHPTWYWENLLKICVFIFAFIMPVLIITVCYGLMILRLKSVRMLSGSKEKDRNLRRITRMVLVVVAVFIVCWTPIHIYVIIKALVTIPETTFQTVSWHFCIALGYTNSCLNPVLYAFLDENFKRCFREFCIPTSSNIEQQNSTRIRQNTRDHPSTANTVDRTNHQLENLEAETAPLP
In assay [1] the target is 5-hydroxytryptamine receptor 2A (Homo sapiens, UniProt P28223). Format: functional, cell-based.
Chain of 5-hydroxytryptamine receptor 2A (P28223 whole entry): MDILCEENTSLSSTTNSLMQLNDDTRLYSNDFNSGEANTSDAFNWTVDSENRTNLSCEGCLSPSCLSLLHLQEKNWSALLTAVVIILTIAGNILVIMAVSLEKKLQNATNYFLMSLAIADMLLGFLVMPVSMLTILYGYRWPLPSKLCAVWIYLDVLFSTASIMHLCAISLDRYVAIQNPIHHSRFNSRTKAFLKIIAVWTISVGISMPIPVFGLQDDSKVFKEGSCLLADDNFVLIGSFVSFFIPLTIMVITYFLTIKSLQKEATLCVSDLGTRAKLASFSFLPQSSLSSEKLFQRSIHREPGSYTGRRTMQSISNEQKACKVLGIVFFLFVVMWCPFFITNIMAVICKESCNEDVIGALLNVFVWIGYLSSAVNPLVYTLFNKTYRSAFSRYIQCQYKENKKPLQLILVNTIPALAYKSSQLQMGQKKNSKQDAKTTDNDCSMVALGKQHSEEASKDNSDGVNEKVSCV
A further assay has as its target T1, Glucocorticoid receptor (Homo sapiens, UniProt P04150).
T1 sequence (P04150 whole entry): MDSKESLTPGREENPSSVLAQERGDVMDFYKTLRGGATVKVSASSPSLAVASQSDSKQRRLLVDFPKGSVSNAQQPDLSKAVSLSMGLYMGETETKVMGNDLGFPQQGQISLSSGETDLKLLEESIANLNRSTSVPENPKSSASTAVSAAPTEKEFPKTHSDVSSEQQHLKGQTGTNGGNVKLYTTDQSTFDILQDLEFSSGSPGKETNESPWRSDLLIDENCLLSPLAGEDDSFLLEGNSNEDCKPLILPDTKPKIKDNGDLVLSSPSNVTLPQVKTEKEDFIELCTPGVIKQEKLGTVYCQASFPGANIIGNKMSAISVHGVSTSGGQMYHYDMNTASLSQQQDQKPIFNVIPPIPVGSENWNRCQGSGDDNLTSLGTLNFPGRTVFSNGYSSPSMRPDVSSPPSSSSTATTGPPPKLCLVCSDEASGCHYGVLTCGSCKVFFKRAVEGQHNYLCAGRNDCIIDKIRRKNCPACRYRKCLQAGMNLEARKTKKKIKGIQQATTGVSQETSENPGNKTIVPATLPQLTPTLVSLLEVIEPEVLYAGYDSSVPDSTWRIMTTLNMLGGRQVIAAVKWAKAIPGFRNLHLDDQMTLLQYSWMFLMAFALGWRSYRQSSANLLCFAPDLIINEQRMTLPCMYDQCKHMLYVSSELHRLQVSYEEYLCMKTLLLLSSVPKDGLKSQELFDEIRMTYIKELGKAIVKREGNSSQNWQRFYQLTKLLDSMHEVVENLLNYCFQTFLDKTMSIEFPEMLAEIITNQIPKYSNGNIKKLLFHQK

The target of the next assay is T2, Androgen receptor (Homo sapiens, UniProt P10275).
T2 sequence (P10275 whole entry): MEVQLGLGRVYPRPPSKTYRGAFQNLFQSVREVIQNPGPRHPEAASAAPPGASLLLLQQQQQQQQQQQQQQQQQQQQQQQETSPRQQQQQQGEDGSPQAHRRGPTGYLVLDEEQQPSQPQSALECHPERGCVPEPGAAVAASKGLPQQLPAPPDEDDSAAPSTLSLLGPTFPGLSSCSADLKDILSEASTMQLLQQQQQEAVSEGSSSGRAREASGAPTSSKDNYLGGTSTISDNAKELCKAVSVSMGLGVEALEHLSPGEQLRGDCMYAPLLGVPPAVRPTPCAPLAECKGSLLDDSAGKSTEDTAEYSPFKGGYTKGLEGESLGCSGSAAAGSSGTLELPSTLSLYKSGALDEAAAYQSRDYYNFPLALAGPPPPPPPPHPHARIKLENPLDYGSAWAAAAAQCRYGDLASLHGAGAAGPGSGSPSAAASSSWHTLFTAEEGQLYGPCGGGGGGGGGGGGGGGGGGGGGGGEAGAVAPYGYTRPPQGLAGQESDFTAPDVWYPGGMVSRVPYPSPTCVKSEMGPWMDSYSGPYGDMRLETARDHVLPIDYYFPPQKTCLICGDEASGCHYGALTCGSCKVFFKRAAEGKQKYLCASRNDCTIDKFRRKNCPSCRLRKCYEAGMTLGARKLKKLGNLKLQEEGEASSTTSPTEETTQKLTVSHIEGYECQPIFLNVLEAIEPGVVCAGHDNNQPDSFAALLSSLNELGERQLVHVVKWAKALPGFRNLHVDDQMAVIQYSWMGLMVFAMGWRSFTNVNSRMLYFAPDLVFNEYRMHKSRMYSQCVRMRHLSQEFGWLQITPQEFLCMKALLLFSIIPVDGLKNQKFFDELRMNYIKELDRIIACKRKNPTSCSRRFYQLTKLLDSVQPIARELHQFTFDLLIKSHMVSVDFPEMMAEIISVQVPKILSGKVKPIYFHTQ
Further: assay procedure not described here.

On to `C[C@@H](NCCCc1cccc(C(F)(F)F)c1)c1cccc2ccccc12`, for which the values for the AC50 (at Mu-type opioid receptor; in assay [1]; on Glucocorticoid receptor) were 1.9 µM, more than 30 µM and more than 30 µM, respectively.

As for `COc1ccc(CC2c3cc(OC)c(OC)cc3CC[N+]2(C)CCC(=O)OCCCCCOC(=O)CC[N+]2(C)CCc3cc(OC)c(OC)cc3C2Cc2ccc(OC)c(OC)c2)cc1OC` (configuration not stated), the AC50 (at Mu-type opioid receptor; in assay [1]; on Glucocorticoid receptor) was more than 30 µM in each case.

Regarding `O=C(O)COc1ccc(C(=O)c2cccs2)c(Cl)c1Cl`, at Androgen receptor, the AC50 was more than 30 µM.

In assay [1], `CCN1CCN(Cc2ccc(Nc3ncc(F)c(-c4cc(F)c5nc(C)n(C(C)C)c5c4)n3)nc2)CC1` [ABEMACICLIB] displayed an AC50 of 28 µM.

On to `COc1cc2nccc(Oc3ccc(NC(=O)C4(C(=O)Nc5ccc(F)cc5)CC4)cc3)c2cc1OC` [CABOZANTINIB], for which the AC50 was more than 30 µM at Androgen receptor and 2.9 µM in assay [1].

For the compound `CC(C(=O)O)c1ccc2c(c1)[nH]c1ccc(Cl)cc12` (configuration not stated) [CARPROFEN], the figures for the AC50 (in assay [1]; at Glucocorticoid receptor) were more than 10 µM and more than 30 µM, respectively.

Take `CC[C@H](C)C[C@H](C)CCCCCCCCC(=O)N[C@H]1C[C@@H](O)[C@@H](NCCN)NC(=O)[C@@H]2[C@@H](O)CCN2C(=O)[C@H]([C@H](O)CCN)NC(=O)[C@H]([C@H](O)[C@@H](O)c2ccc(O)cc2)NC(=O)[C@@H]2C[C@@H](O)CN2C(=O)[C@H]([C@@H](C)O)NC1=O` [CASPOFUNGIN]: the concentration at half-maximal activity (AC50) at Androgen receptor is more than 30 µM.

In the case of `C/C=C/C/C=C/CCC(=O)[C@H]1O[C@H]1C(N)=O` [CERULENIN], the AC50 at Androgen receptor is more than 30 µM.

On to `O=C1CCc2cc(OCCCCc3nnnn3C3CCCCC3)ccc2N1` [CILOSTAZOL], for which the concentration at half-maximal activity (AC50) at Mu-type opioid receptor and at Glucocorticoid receptor was more than 30 µM each time.

On to `O=C1CN(/N=C/c2ccc(-c3ccc([N+](=O)[O-])cc3)o2)C(O)=N1` [DANTROLENE], for which the AC50 on Mu-type opioid receptor was more than 30 µM; in assay [1] it was more than 10 µM; at Glucocorticoid receptor, more than 10 µM.

Consider `CN(C)CC[C@@H](c1ccc(Cl)cc1)c1ccccn1` [DEXCHLORPHENIRAMINE], for which the half-maximal activity concentration (AC50) on Mu-type opioid receptor and at Glucocorticoid receptor was more than 30 µM each time.

Turning to `C[C@]12C=CC(=O)N[C@@H]1CC[C@@H]1[C@@H]2CC[C@]2(C)[C@@H](C(=O)Nc3cc(C(F)(F)F)ccc3C(F)(F)F)CC[C@@H]12` [DUTASTERIDE], the values for the AC50 (at Mu-type opioid receptor; in assay [1]; at Glucocorticoid receptor) were more than 30 µM, more than 10 µM and more than 10 µM, respectively.

On Androgen receptor, `OC[C@H]1O[C@@H](c2ccc(Cl)c(Cc3ccc(O[C@H]4CCOC4)cc3)c2)[C@H](O)[C@@H](O)[C@@H]1O` [EMPAGLIFLOZIN] registered a concentration at half-maximal activity (AC50) of more than 30 µM.

Take `CC(C)(O)CNc1nc(Nc2ccnc(C(F)(F)F)c2)nc(-c2cccc(C(F)(F)F)n2)n1` [ENASIDENIB]: the concentration at half-maximal activity (AC50) at Androgen receptor was more than 30 µM.

Consider `CN(C)CCC[C@@]1(c2ccc(F)cc2)OCc2cc(C#N)ccc21` [ESCITALOPRAM], for which the AC50 at Glucocorticoid receptor is more than 30 µM.

Turning to `C#C[C@]1(O)CC[C@H]2[C@@H]3CCC4=CC(=O)CC[C@@H]4[C@H]3C(=C)C[C@@]21CC` [ETONOGESTREL], the AC50 (on Mu-type opioid receptor; in assay [1]) was more than 30 µM throughout.

For the compound `CCc1nc(C(N)=O)c(Nc2ccc(N3CCC(N4CCN(C)CC4)CC3)c(OC)c2)nc1NC1CCOCC1` [GILTERITINIB], the concentration at half-maximal activity (AC50) on Androgen receptor was more than 30 µM.

The compound `CC[C@H](c1ccc(O)cc1)[C@@H](CC)c1ccc(O)cc1` [HEXESTROL] displayed an AC50 at Androgen receptor of 6.95 µM.

For the compound `OC[C@H]1O[C@@H](c2ccc(F)c(Cc3cc4ccccc4s3)c2)[C@H](O)[C@@H](O)[C@@H]1O` [IPRAGLIFLOZIN], the AC50 at Androgen receptor is more than 30 µM.

In the case of `CC(C)C[C@H](NC(=O)CNC(=O)c1cc(Cl)ccc1Cl)B(O)O` [IXAZOMIB], at Androgen receptor, the AC50 is more than 30 µM.

Turning to `CN(CC1(C)CCCO1)S(=O)(=O)c1ccc(Cl)c(S(N)(=O)=O)c1` (configuration not stated) [MEFRUSIDE], the AC50 (on Mu-type opioid receptor; in assay [1]) was more than 30 µM each time.

`C[C@@H]1C[C@H]2[C@@H]3CCC4=CC(=O)C=C[C@]4(C)[C@@]3(Cl)[C@@H](O)C[C@]2(C)[C@@]1(OC(=O)c1ccco1)C(=O)CCl` [MOMETASONE FUROATE] displayed an AC50 on Androgen receptor of 0.0337 µM.

With `CC(=O)O[C@]1(C(C)=O)CC[C@H]2[C@@H]3C=C(C)C4=CC(=O)CC[C@@H]4[C@H]3CC[C@@]21C` [NOMEGESTROL ACETATE], the AC50 at Androgen receptor was 0.02 µM; at Mu-type opioid receptor, more than 30 µM; in assay [1] it was more than 30 µM; at Glucocorticoid receptor, 0.067 µM.

In turn, `O=C(O)c1cc(/N=N/c2ccc(O)c(C(=O)O)c2)ccc1O` [OLSALAZINE] displayed a half-maximal activity concentration (AC50) at Androgen receptor of more than 30 µM.

`CCOC(=O)c1c(C)cc2c(CO)n[nH]c(=O)c2c1C` [OXAGRELATE] gave an AC50 at Androgen receptor of more than 30 µM.

Consider `N#Cc1ccc2c(c1)N(CCCN1CCC(O)CC1)c1ccccc1S2` [PERICIAZINE], for which the concentration at half-maximal activity (AC50) at Androgen receptor was more than 30 µM.

Compound `FC(F)(F)c1ccc(CNc2ccc(Cc3c[nH]c4ncc(Cl)cc34)cn2)cn1` [PEXIDARTINIB] registered an AC50 at Androgen receptor of more than 30 µM.

As to `CN1CCC(=C2c3ccccc3Sc3ccccc32)CC1` [PIMETHIXENE], on Androgen receptor, the half-maximal activity concentration (AC50) is more than 30 µM.

In the case of `CN1C(C(=O)Nc2ccccn2)=C(O)c2ccccc2S1(=O)=O` [PIROXICAM], the half-maximal activity concentration (AC50) at Mu-type opioid receptor is more than 30 µM; at Glucocorticoid receptor, more than 10 µM.

On Mu-type opioid receptor, `C=C[C@H]1C[N@@]2CC[C@H]1C[C@@H]2[C@@H](O)c1ccnc2ccc(OC)cc12` [QUINIDINE] registered a half-maximal activity concentration (AC50) of more than 30 µM.

With `CC(CN1CC(=O)NC(=O)C1)N1CC(=O)NC(=O)C1` (configuration not stated) [RAZOXANE], on Androgen receptor, the AC50 was more than 30 µM.

Regarding `CC(N)C12CC3CC(CC(C3)C1)C2` (configuration not stated) [RIMANTADINE], the AC50 on Glucocorticoid receptor is more than 10 µM.

With `CC(C)c1nc(N(C)S(C)(=O)=O)nc(-c2ccc(F)cc2)c1/C=C/[C@@H](O)C[C@@H](O)CC(=O)O` [ROSUVASTATIN], the concentration at half-maximal activity (AC50) (on Mu-type opioid receptor; in assay [1]; at Glucocorticoid receptor) was more than 30 µM each time.

`OC[C@H]1O[C@@](CO)(O[C@H]2O[C@H](CO)[C@@H](O)[C@H](O)[C@H]2O)[C@@H](O)[C@@H]1O` [SUCROSE]: the concentration at half-maximal activity (AC50) (on Mu-type opioid receptor; in assay [1]) was more than 30 µM each time.

For `O=C1C(CC[S+]([O-])c2ccccc2)C(=O)N(c2ccccc2)N1c1ccccc1` (configuration not stated) [SULFINPYRAZONE], the values for the half-maximal activity concentration (AC50) on Mu-type opioid receptor and on Glucocorticoid receptor were more than 30 µM and more than 10 µM, respectively.

For `CCN(CC)CCNC(=O)c1c(C)[nH]c(/C=C2\C(=O)Nc3ccc(F)cc32)c1C` [SUNITINIB], the AC50 at Mu-type opioid receptor and on Glucocorticoid receptor was more than 30 µM throughout.

The compound `CC(C)OC(=O)CCC/C=C\C[C@@H]1[C@@H](/C=C/C(F)(F)COc2ccccc2)[C@H](O)C[C@@H]1O` [TAFLUPROST] gave a half-maximal activity concentration (AC50) on Androgen receptor of more than 30 µM.

`CC(S)C(=O)NCC(=O)O` (configuration not stated) [TIOPRONIN] had an AC50 in assay [1] of more than 30 µM.

For the compound `C[C@H](CCC(=O)O)[C@H]1CC[C@H]2[C@@H]3[C@@H](O)C[C@@H]4C[C@H](O)CC[C@]4(C)[C@H]3CC[C@]12C` [URSODIOL], the half-maximal activity concentration (AC50) in assay [1] is more than 30 µM.
